Measured values as given in patent publication US6943181B2, “Use of substituted gamma-lactone compounds as pharmaceutical preparations” (Grunenthal GmbH, priority 2001, dated 2005).

Molecular target: T1, nitrogen monoxide synthase (NO synthase) (Rattus norvegicus, UniProt P29476)
T1 construct: the supernatant was then decanted off and frozen in portions; from tissue; host or cells: rat cerebellum (homogenate, 20,000 g supernatant)
Experiment: HTS-NOS assay (nitrogen monoxide synthase assay)
Type: biochemical
Settings: compound at 10 μM; enzyme preparation from rat cerebella; [3H]-arginine substrate
Source text: This assay makes it possible to determine the percentage inhibition of NO synthase by a compound of the general formula I used according to the invention by measuring NOS activity on exposure to the compound. NO synthase is here mixed under suitable conditions together with radioactively labelled arginine and the particular compound of the general formula I. After termination of the NO formation reaction at a predetermined time, the quantity of unconverted arginine is directly or indirectly determined. […] This assay may be carried out at follows: • (a) Incubation of the NO synthase with labelled arginine as the substrate in a reaction vessel, • (b) Separation of the labelled arginine from the labelled citrulline optionally arising as a product of the enzymatic reaction at a time at which the concentration of citrulline is rising, • (c) Measurement of the quantity of arginine separated in each case.
Separation is performed by means of a filter plate membrane.
Radioactive arginine is used as the substrate in this HTS-NOS assay. Depending on the type of microtitre plate (MTP), the assay volume may be selected in the range between 25 μl and 250 μl. Depending on the enzyme source used, cofactors and coenzymes are added. The batches are incubated in this microtitre plate (assay MTP) according to step (a) at room temperature and, depending on the enzyme activity used (units), lasts between 5 and 60 minutes. On completion of incubation (step (a)), the plate is placed in a cell harvester, which is equipped with an MTP which has a cation exchange membrane as a filter bottom (filter MTP). All the batches from the assay MTP are transferred into this filter MTP and suction filtered through a cation exchange filter plate, a paper filter loaded with phosphate groups. The filter MTP is then washed with buffer or water. This procedure binds the remaining substrate arginine onto the cation exchanger, while the enzymatically formed radioactive citrulline is quantitatively eluted. Once the filter MTP has been dried and scintillation liquid added, the bound arginine can be counted in the scintillation counter. Low radioactivity indicates an uninhibited NOS reaction. An inhibited enzyme reaction means that the radioactive arginine has not been converted. This means that there is a high level of radioactivity on the filter.
• Arginine, L-[2,3,4-^3H]-monohydrochloride; item no. […] The pH value of the buffer was adjusted to 7.4 at 25° C. • Washing medium: H2O Enzyme Preparation
Rat cerebella were used as the starting tissue. The animals were stunned and killed, the brain tissue, the cerebellum, was dissected out, 1 ml of enzyme preparation buffer (4° C.) was added per cerebellum, and the tissue was disrupted for 1 min at 6000 rpm in a Polytron homogeniser. The mixture was then centrifuged at 4° C. for 15 min at 20,000 g, and the supernatant was then decanted off and frozen in portions at −80° C. (discarding the precipitate).
96-Well MTPs with a well capacity of ≦250 μl were used Pipetting sequence: see table 1:
Once the pipetting operation was complete, a lid was laid on top of this MTP (assay MTP). Incubation at 25° C. (room temperature (RT)) for 5-60 min, depending on the quantity and activity of the enzyme used.
The contents of the assay MTP were then transferred with the assistance of a 96 well cell harvester into a 96 well cation exchange MTP (filter MTP) and suction filtered. A single washing with […] of H2O (from a trough) was then performed.
The plate was then dried for 1 h at 60° C. in a drying cabinet. The bottom of the filter MTP was then carefully sealed from beneath with a “back seal”. 35 μl of scintillating material were then pipetted into each well. The top of the plate was also sealed with a “top seal”. After 1 hour's waiting time, the plate was assessed on the β-counter.

| SMILES | inhibition at 10 µM [%] | NOS (% inhibition) [%] |
| --- | --- | --- |
| Cc1ccnc(NC2CC(C)(c3ccc4c(c3)OCO4)OC2=O)c1 (stereo not shown) [Example 37, 5-Benzo[1,3]dioxol-5-yl-5-methyl-3-(4-methyl-pyridin-2-ylamino)-dihydro-furan-2-one] | 50 |  |
| Cc1cnc(NC2CC(C)(c3cccc4ccccc34)OC2=O)c(Br)c1 (stereo not drawn) [Example 48, 3-(3-Bromo-5-methyl-pyridin-2-ylamino)-5-methyl-5-naphthalen-l-yl-dihydro-furan-2-one] |  | 45 |
| Cc1cccc(NC2CC(C)(c3ccc4c(c3)OCO4)OC2=O)n1 (stereo not shown) [Example 40, 5-Benzo[1,3]dioxol-5-yl-5-methyl-3-(6-methyl-pyridin-2-ylamino)-dihydro-furan-2-one] | 53 |  |
| Cc1ccc(NC2CC(C)(c3ccc4c(c3)OCO4)OC2=O)nc1 (stereo not shown) [Example 39, 5-Benzo[1,3]dioxol-5-yl-5-methyl-3-(5-methyl-pyridin-2-ylamino)-dihydro-furan-2-one] | 44 |  |
| Cc1ccnc(NC2CC(C)(c3ccc(Oc4ccccc4)cc3)OC2=O)c1 (stereo not shown) [Example 23, 5-Methyl-3-(4-methyl-pyridin-2-ylamino)-5-(4-phenoxy-phenyl)-dihydro-furan-2-one] | 79 |  |
| CCCc1cccc(NC2CC(C)(c3cc4ccccc4s3)OC2=O)n1 (stereo not shown) [Example 27, 5-Benzo[b]thiophen-2-yl-5-methyl-3-(6-propyl-pyridin-2-ylamino)-dihydro-furan-2-one] | 43 |  |

More lines, now with the values ahead:

| inhibition at 10 µM [%] | NOS (% inhibition) [%] | SMILES |
| --- | --- | --- |
| 61 |  | CCCc1cccc(NC2CC(C)(c3cccc(Cl)c3)OC2=O)n1 (stereo not shown) [Example 50, 5-(3-Chloro-phenyl)-5-methyl-3-(6-propyl-pyridin-2-ylamino)-dihydro-furan-2-one] |
| 48 |  | COc1ccc(C2(C)CC(Nc3cc(C)ccn3)C(=O)O2)cc1 (stereo not shown) [Example 75, 5-(4-Methoxy-phenyl)-5-methyl-3-(4-methyl-pyridin-2-ylamino)-dihydro-furan-2-one] |
| 59 |  | CC1(c2ccc(Br)cc2)CC(Nc2ncccc2OCc2ccccc2)C(=O)O1 (stereo not shown) [Example 56, 3-(3-Benzyloxy-pyridin-2-ylamino)-5-(4-bromo-phenyl)-5-methyl-dihydro-furan-2-one] |
| 50 |  | Cc1ccnc(NC2CC(C)(c3cccc(Cl)c3)OC2=O)c1[N+](=O)[O-] (stereo not shown) [Example 51, 5-(3-Chloro-phenyl)-5-methyl-3-(4-methyl-3-nitro-pyridin-2-ylamino)-dihydro-furan-2-one] |
| 51 |  | COc1ccccc1C1(C)CC(Nc2ncc(Cl)cc2Cl)C(=O)O1 (stereo not shown) [Example 70, 3-(3,5-Dichloro-pyridin-2-ylamino)-5-(2-methoxy-phenyl)-5-methyl-dihydro-furan-2-one] |
| 54 |  | COc1ccc(C2(C)CC(Nc3ncc(C(F)(F)F)cc3Cl)C(=O)O2)c(OC)c1 (stereo not shown) [Example 71, 3-(3-Chloro-5-trifluoromethyl-pyridin-2-ylamino)-5-(2,4-dimethoxy-phenyl)-5-methyl-dihydro-furan-2-one] |
| 59 |  | Cc1ccnc(NC2CC(C)(c3ccc(Br)cc3)OC2=O)c1 (stereo not shown) [Example 60, 5-(4-Bromo-phenyl)-5-methyl-3-(4-methyl-pyridin-2-ylamino)-dihydro-furan-2-one] |
